Assay results taken from US12551482B2, “Aurora kinase inhibitors” (The Regents of the University of California, priority 2013, dated 2026).

Columns and labels:
[1] = test system: LB996-RCC; assay: Cancer cell line profiling, Genomics of Drug Sensitivity Project; conditions: read-out: CD532 EC50 (uM)
[2] = test system: NCI-H747; assay: as above; conditions: Homo sapiens, NCI-H747, read-out: CD532 EC50 (uM)
[3] = test system: Kelly MYCN-amplified neuroblastoma cells; assay: Viability at 72 hrs, CyQUANT assay; format: cell-based; conditions: FIG. 1F, read-out: cellular EC50 at 72 hrs
Procedure: Neuroblastoma cells were treated for the indicated time, trypsinized, washed, stained with Dylight 800 at 0.3 μg/mL (Pierce, 46421), fixed with 1.5% PFA, and permeabilized with 100% methanol. Cells were then stained with antibodies against p-MPM2 (Millipore, 16-155), p-pan-Aurora (Cell Signaling, 2914), MYCN (Thermo, PA5-17403), rabbit IgG (Invitrogen, A10542), or mouse IgG (BioLegend, 405307). Cells were stained with DAPI at 0.3 μg/mL (Invitrogen, D21490) and analyzed on the BD LSR II flow cytometer. For cell cycle analysis, cells were stimulated with EdU for 2 hours prior to harvest, then probed using the Click-iT EdU Flow Cytometry Assay Kit (Invitrogen, C10424). Cells were stained with propidium iodide (BD, 556547) and analyzed on the BD FACSCalibur flow cytometer. Data was gated using Cytobank. For viability studies, neuroblastoma cells were plated in 96-well plates at a density of 1,000 cells/well for SHEP or 4,000 cells/well for Kelly or SK—N-BE2 cells, then incubated with indicated concentrations of drug for 72 hours at 37° C. […] CyQUANT reagent mixture (Invitrogen, C7026) was added to thawed plates, then fluorescence was measured. Alternatively, resazurin (Sigma-Aldrich, R7017) was added directly to wells following drug treatment then incubated for 4 hours at 37° C. prior to measuring fluorescence. Data was analyzed using GraphPad Prism software.

[4] = test system: CL-11; assay: Cancer cell line profiling, Genomics of Drug Sensitivity Project; conditions: CL-11, read-out: CD532 EC50 (uM)
[5] = test system: AsPC-1; assay: as above; conditions: Homo sapiens, ASPC1, read-out: CD532 EC50 (uM)
[6] = test system: 5637; assay: as above; conditions: read-out: CD532 EC50 (uM)
[7] = test system: HGC-27; assay: as above; conditions: Homo sapiens, HGC-27, read-out: CD532 EC50 (uM)
[8] = test system: YAPC; assay: as above; conditions: Homo sapiens, read-out: CD532 EC50 (uM)
[9] = test system: NB12; assay: as above; conditions: read-out: CD532 EC50 (uM)
[10] = test system: K5; assay: as above; conditions: read-out: CD532 EC50 (uM)
[11] = test system: SK-MEL-3; assay: as above; conditions: Homo sapiens, SK-MEL3, read-out: CD532 EC50 (uM)
[12] = test system: SNU-423; assay: as above; conditions: Homo sapiens, SNU-423, read-out: CD532 EC50 (uM)
[13] = test system: phospho-histone H3; assay: Screen of Kelly MYCN-amplified cells, western blot for phospho-histone H3; format: cell-based; conditions: 1 μM, 24 hrs
Procedure: Neuroblastoma tumor cell lines were obtained from the University of California San Francisco Cell Culture Facility (Kelly, SK-N-BE2, and SH-EP). SMS-KCN, SHEP MYCN^wt and MYCN^T58A/S62A cells were obtained. All cells were grown in RPMI with 10% FBS. Neuroblastoma cells were harvested and lysed with Cell Signaling Lysis buffer+1% SDS, sonicated and supernatants boiled in LDS sample buffer (Invitrogen). Western blots were performed as described previously (Chanthery et al., 2012), with primary antibodies to MYCN (ab24193, Abcam), Histone H3, P-Histone H3 (S10), Aurora A (Cell signaling), and GAPDH (Millipore). Western blot quantitation performed with ImageJ software.
To test whether this panel of 32 putative conformation-disrupting Aurora A inhibitors would destabilize MYCN, initially Kelly MYCN-amplified neuroblastoma cells were treated with candidate inhibitors and MYCN protein was measured by western blot. Phosphorylation of Histone H3, a known substrate for Aurora A and B and a marker for mitosis, was also assessed. FIGS. 1B and 5 show decreased levels of both MYCN protein and p-Histone H3 in response to several members of the screening panel (quantitated in FIG. 1).

[14] = test system: GT3TKB; assay: Cancer cell line profiling, Genomics of Drug Sensitivity Project; conditions: read-out: CD532 EC50 (uM)
[15] = test system: GAK; assay: as above; conditions: read-out: CD532 EC50 (uM)
[16] = test system: COLO-800; assay: as above; conditions: Homo sapiens, COLO-800, read-out: CD532 EC50 (uM)
[17] = test system: IGR-1; assay: as above; conditions: Homo sapiens, IGR-1, read-out: CD532 EC50 (uM)
[18] = test system: MEWO; assay: as above; conditions: Homo sapiens, read-out: CD532 EC50 (uM)
[19] = test system: NB10; assay: as above; conditions: read-out: CD532 EC50 (uM)
[20] = test system: tumor-derived cell lines; assay: Screen of panel of tumor-derived, genetically characterized cell lines; format: cell-based
[21] = test system: NCI-N87; assay: Cancer cell line profiling, Genomics of Drug Sensitivity Project; conditions: Homo sapiens, NCI-N87, read-out: CD532 EC50 (uM)
[22] = test system: EFO-21; assay: as above; conditions: Homo sapiens, EFO-21, read-out: CD532 EC50 (uM)

O=C(Nc1ccc(Nc2nccc(Nc3cc(C4CCCC4)[nH]n3)n2)cc1)Nc1cccc(C(F)(F)F)c1 [CD532, 1-(4-((4-((5-cyclopentyl-1H-pyrazol-3-yl)amino)pyrimidin-2-yl)amino)phenyl)-3-(3-(trifluoromethyl)phenyl)urea]
EC50 [1]: 2.08 µM
EC50 [2]: 0.665 µM
EC50 [3]: 147 nM
EC50 [4]: 4.93 µM
EC50 [5]: 5.41 µM
EC50 [6]: 0.49 µM
EC50 [7]: 0.83 µM
EC50 [8]: 5.34 µM
EC50 [9]: 0.293 µM
EC50 [10]: 1.33 µM
EC50 [11]: 0.567 µM
EC50 [12]: 0.753 µM
p-Histone H3 level [13]: decreased levels of both MYCN and p-Histone H3 proteins
EC50 [14]: 1.05 µM
EC50 [15]: 0.823 µM
EC50 [16]: 0.302 µM
EC50 [17]: 0.27 µM
EC50 [18]: 1.46 µM
EC50 [19]: 0.275 µM
susceptibility of MYCN amplified vs non-amplified cell lines ([20]; Wilcoxon Rank Sum test): significantly more susceptible to CD532 than non-amplified lines
EC50 values across the panel ([20]; most cell lines): nanomolar range
EC50 [21]: 10.9 µM
EC50 [22]: 1.87 µM
